Test results as given in patent US12492403B2, “Aptamers and the use thereof in the treatment of cancer” (FUNDACIÓN PARA LA INVESTIGACIÓN BIOMÉDICA DEL HOSPITAL …, priority 2018, dated 2025).

Assays:
MDA-MB-468 cells = test: Transwell migration assay; format: cell-based, human; settings: MDA-MB-468, 50 nM, 24 hours migration
Description: (§1) FIGS. 13A, 13B and 13C. Effect of aptamer apMNKQ2 on the migration and invasion of breast cell lines. The three lines of study were seeded in 6-well plates at a density of 2.5×10^5 cells/well and transfected at 24 hours with apMNKQ2 at the established working concentrations. The cell lines were deprived of serum after 6 hours and collected and re-seeded (4×10^4 cells/well) after 24 hours in a transwell […], in order to perform migration and invasion assays, respectively. At 24 hours, the membranes of the transwell are stained with Hoechst and cells that have gone through the membranes are quantified using fluorescence microscopy (FIG. 13A). The boxes (FIGS. 13B and 13C) represent the mean±the maximum and minimum of 4-5 independent experiments (*p<0.05, **p<0.01, and ***p<0.001 with respect to the control aptamer AT).
(§2) Cell migration and invasion assays were performed using transwell (Corning, USA). The cells, previously transfected and incubated for 16 hours, were deprived of serum for 18 hours. After that time, they were collected, counted, and reseeded 4×10^4 cells in 300 μl of a serum-free complete medium inside the transwell (migration) or a transwell on which a layer of 100 μL of Matrigel (Corning, USA) (invasion) had previously been polymerized. […] Finally, two washes in PBS were performed, and 5 photographs of each membrane of the transwell were taken using a fluorescence microscope (Olympus IX70). The number of cells was analyzed using the imageJ program.
(§3) To analyze the effect of the aptamer on cell migration, experiments were carried out using transwells instead of the wound healing technique. […] At 18 hours, 40,000 cells are collected, counted, and seeded in small “baskets” in a serum-free medium, and these baskets are immersed in the well of the plate with complete serum, such that the serum acts as a chemoattractant and the cells migrate from the basket to the well, going through the membrane of the transwell. […]

MCF7 cells = test: Transwell migration assay; format: cell-based, human; settings: MCF7, 150 nM, 24 hours migration
Description: as §1, §2, §3

MDA-MB-231 cells = test: Transwell migration assay; format: cell-based, human; settings: MDA-MB-231, 400 nM, 24 hours migration
Description: as §1, §2, §3

[1] = test system: MCF7, MDA-MB-231, and MDAMB-468 cells; test: Aptamer penetration into cells (Alexa-488 fluorescence microscopy); format: cell-based, human; settings: Alexa fluor 488-conjugated aptamer 250 nM added to medium, 24 hours, compared with lipofectamine transfection
Description: FIGS. 16A & 16B. Study of aptamer apMNKQ2 penetration into cells. MCF7, MDA-MB-231, and MDAMB-468 cells were seeded in 24-well plates with a cover glass at a density of 3×10^4 cells/well, with the transfection/addition of apMNKQ2 labeled with Alexa-488 at 250 nM at 24 hours. Twenty-four hours after transfection, the cells were fixed, stained with Hoechst, and mounted on slides with Prolong™ mounting medium. The number refers to the intensity of the aptamer measured with the imageJ program and expressed in arbitrary units.
To analyze cell penetration by apMNKQ2, 3×10^4 cells/well were seeded on cover glasses and the structured, Alexa fluor 488-conjugated aptamer at 250 nM was added to the cell medium at 24 hours. In parallel, the aptamer was transfected with lipofectamine at the same concentration. After 24 hours, the cells were fixed and stained with Hoechst.

[2] = Stability in human plasma; format: in vitro ADME; settings: 37° C., 72 hours
Description: FIGS. 7A and 7B. Stability of apMNKQ2. Chip Experion™ DNA 1K Analysis Kit (BioRad, USA) for analyzing the stability of apMNKQ2 with 1 unit, 0.5 units, and 0.25 units of DNase I (FIG. 7A). In FIG. 7B, the degradation of aptamer apMNKQ2 in human plasma at 0, 6, 16, 24, 48, and 72 hours is depicted.
The previously structured aptamer apMNKQ2 (1 μg) was incubated in the presence of 1 unit, 0.5 units, and 0.25 units of the enzyme DNase I (ThermoFisher Scientific, USA) in the buffer supplied by the company (10 mM Tris HCl, pH 7.5, 2.5 mM MgCl2, 0.1 mM CaCl2)) for 5 minutes at 37° C., and the reaction was then stopped by adding 1 μL of 50 mM EDTA (ThermoFisher Scientific, USA) and heating at 65° C. for 10 minutes. […] The samples were analyzed using an Experion™ DNA 1K Analysis Kit chip (BioRad, USA). The intensity of each of the bands corresponding to the aptamers treated or not treated with DNase I or plasmas was assessed and the percentage of stability was calculated by dividing the value obtained for each of the treated aptamers by the value obtained for the untreated aptamer.
Resistance of the aptamer to degradation by DNases was analyzed by incubating […] of structured apMNKQ2 in the presence of three concentrations of DNase I (Thermo Scientific, USA), as described in the Materials and Methods section. […]

With “5′TGGGGTGGGCGGGCGGGGGTGGGGGTGGT-3′ (DNA, backbone and methylation of C not given here; further chemistry not fully specified) [apMNKQ2]” the “inhibition of migration (transwell)” value (MDA-MB-468 cells) was “capable of inhibiting migration”, the “inhibition of migration (transwell)” value (MCF7 cells) was “in a statistically significant manner” and the “inhibition of migration (transwell)” value (MDA-MB-231 cells) was “in a statistically significant manner”. The “penetration into cells without transfectant” value [1] was “capable of only entering the cells, although with a lower intensity” and the “degradation in human plasma” value [2] was “no degradation”.
